In patent publication US10189796B2, “[4-(1,3,3-trimethyl-2-oxo-3,4-dihydro-1H-quinoxalin-7-yl)phenoxy]ethyloxy compound or salt thereof” (SANTEN PHARMACEUTICAL CO., LTD., priority 2015, dated 2019):

Assays:
[1] = test system: exorbital lacrimal gland-removed rat dry eye model; test: Dry eye syndrome (dry eye) model evaluation test; format: in vivo; settings: eye drop 5 μL four times a day
[2] = test system: exorbital lacrimal gland-removed rat dry eye model; test: Dry eye syndrome (dry eye) model evaluation test; format: in vivo; settings: eye drop 5 μL four times a day; remark: listed apart in the source
Description: In order to evaluate the treatment effect of the present compounds on corneal disorder accompanied by dry eye syndrome (dry eye), a treatment effect on corneal disorder in an exorbital lacrimal gland-removed rat dry eye model was investigated. This model was prepared in accordance with the method of Fujihara, et al. (Invest. Ophthalmol. Vis. Sci., 42(1): 96-100 (2001)). Incidentally, this effect was scored according to the method of Murakami et al. (New Ophthalmologist 21(1): 87-90 (2004)), the extent of corneal disorder was scored and the improvement ratio was calculated from the corneal disorder score of the base agent administered group (control group), the corneal disorder score of the test compound administered group and the corneal disorder score of the normal rat.
A base agent containing a general additive(s) was added to the test compound to prepare test compound suspensions with 0.03% (W/V) and 0.1% (W/V). In addition, a base agent was added to the commercially available drug A to prepare a diluted solution with 0.05% (V/V).
• 1) By using male SD rats, somnopentyl was administered to the rats to apply them general anesthesia, exorbital lacrimal glands were removed, and corneal disorder was induced over 8 weeks thereafter. • 2) The test compound suspension was eye-dropped (instillation dose: 5 μL/time) to both eyes four times a day for 14 days. Incidentally, the base agent was similarly eye-dropped to the administered group (control group), and the commercially available drug A and its diluted solution were similarly eye-dropped. • 3) Fourteen days after the start of eye dropping, the cornea was stained with fluorescein. For each of the upper part, the middle part and the lower part of the cornea, scores of the degree of staining with fluorescein were determined according to the following criteria, and an average value of the total of the scores was calculated. Incidentally, 0.5 was set as an intermediate value between each score of 0, 1, 2 and 3. <<Judgement Standard>>
1: Dyeing is sparse, and the dyed portions of each dot are separated
2: Dyeing is a middle degree and part of the dotted dyed portions is adjacent
3: Dyeing is dense, and the dyed portions of each point are almost adjacent
(Calculation Formula) Corneal disorder improvement ratio (%) of the test compound administered group=(Ao−Ax)/(Ao−An)×100 • Ao: Average value of corneal disorder score of the base agent administered group (control group) • Ax: Average value of corneal disorder score of the test compound administered group • An: Average value of corneal disorder score of normal rat (Test Result and Consideration)

[3] = test system: VEGF-induced retinal elevated vascular permeability model of rabbits; test: Retinal vascular permeability model evaluation test; format: in vivo, rabbit; settings: 2% 50 μL/base agent A, intravitreal once; 4 weeks before VEGF induction
Description: In order to evaluate the inhibitory effect of the present compounds on VEGF-induced retinal vascular permeability, the inhibitory effect of the present compound on retinal vascular permeability in a VEGF-induced retinal elevated vascular permeability model of rabbits was evaluated. Incidentally, this effect was evaluated by calculating a leaked amount of the fluorescent dye of the base agent administered group (non-induced group), a leaked amount of the fluorescent dye of the base agent administered group (control group) and a leaked amount of the fluorescent dye of the test compound administered group.
To the test compound was added 0.01% Polysorbate 80/0.5% sodium carboxymethyl cellulose/PBS (hereinafter referred to as “base agent A”.), whereby 2% (W/V) or 8% (W/V) of the test compound suspension was prepared. Or else, to the test compound was added PEG400 (hereinafter referred to as “base agent B”.), whereby 6% (W/W) of the test compound solution was prepared.
VEGF solution: humanVEGF165 was dissolved in PBS to prepare 50 μg/mL of VEGF solution.
• 1) A mixed solution (1 mL/kg) of 5% ketamine hydrochloride injection solution and 2% xylazine hydrochloride injection solution with the ratio of 7:1 was intramuscularly administered to rabbits (Dutch male rabbits), and the rabbits were anesthetized. • 2) Tropicamide-phenylephrine hydrochloride ophthalmic solution (trade name: Midlin P) was eye dropped to maintain pupillary mydriasis, and then, the VEGF solution was intravitreally administered. Incidentally, PBS was intravitreally administered to the base agent administration group (non-induced group). • 3) Fluorescein was intravenously administered 2 days after intravitreal administration of VEGF. Two hours after the intravenous administration of fluorescein, an amount of the leaked fluorescent dye in the vitreous body was measured by using a fluorophotometer. (Test Method) • 1) One week before or 4 weeks before VEGF-induction, 50 μL of the test compound suspension (prepared by the base agent A) was intravitreally administered once, or 5 μL of the test compound solution (prepared by the base agent B) was intravitreally administered once. Incidentally, in the base agent administered group (non-induced group) and the base agent administered group (control group), the base agent A was used in place of the test compound suspension, or the base agent B was used in place of the test compound solution. • 2) Inhibition ratio of elevated retinal vascular permeability was calculated according to the following calculation formula. (Calculation Formula) Inhibitory ratio (%) on elevated retinal vascular permeability of the test compound administered group=100×{1−(average value of a leaked fluorescent dye amount in the test compound administered group−average value of a leaked fluorescent dye amount in the base agent administered group (non-induced group))/(average value of a leaked fluorescent dye amount in the base agent administered group (control group)−average value of a leaked fluorescent dye amount of the base agent administered group (non-induced group))}

Compound | Corneal disorder improvement ratio (%) After 7 days eye dropping ([1]; 0.1%) | Corneal disorder improvement ratio (%) After 14 days eye dropping ([2]; 0.1%) | Corneal disorder improvement ratio (%) After 7 days eye dropping ([1]; 0.03%) | Corneal disorder improvement ratio (%) After 14 days eye dropping ([2]; 0.03%) | Inhibitory ratio (%) on elevated vascular permeability [3]
COc1cc(OC[C@H](C)OC(=O)C(O)CO)ccc1-c1ccc2c(c1COc1cc(F)ccc1C)N(C)C(=O)C(C)(C)N2 (stereo partly drawn) [Compound 13-1, (S)-7-[4-[2-(2,3-dihydroxypropanoyl)oxypropyl]oxy-2-methoxyphenyl]-8-(5-fluoro-2-methylphenoxymethyl)-1,3,3-trimethyl-3,4-dihydro-1H-quinoxalin-2-one] | 38% | 46% | – | – | –
COc1cc(OC[C@H](C)OC(=O)CCC(=O)O)ccc1-c1ccc2c(c1COc1cc(F)ccc1C)N(C)C(=O)C(C)(C)N2 [Compound 12-1, (S)-7-[4-[2-(3-carboxypropanoyloxy)propyl]oxy-2-methoxyphenyl]-8-(5-fluoro-2-methylphenoxymethyl)-1,3,3-trimethyl-3,4-dihydro-1H-quinoxalin-2-one] | 42% | 58% | 33% | 48% | –
COc1cc(OC[C@H](C)OC(=O)C2CCCN2)ccc1-c1ccc2c(c1COc1cc(F)ccc1C)N(C)C(=O)C(C)(C)N2.Cl (stereo partly drawn) [Compound 11-2, 8-(5-Fluoro-2-methylphenoxymethyl)-7-[4-[(2S)-[(2S)-pyrrolidylcarbonyloxy]-propyl]oxy-2-methoxyphenyl]-1,3,3-trimethyl-3,4-dihydro-1H-quinoxalin-2-one hydrochloride] | – | – | – | – | 92%
